This is an account of results in patent publication US20250214947A1, “3,4-DIHYDROQUINOXALINE-2-CARBOXIMIDE DERIVATIVE COMPOUND AND PHARMACEUTICAL COMPOSITION COMPRISING SAME FOR PREVENTING OR TREATING CANCER DISEASE” (Cureverse Incorporated, priority 2022, published 2025).

The target of one assay is T1, HDAC8 (Homo sapiens, UniProt Q9BY41).
T1 construct: purchased BPS bioscience
T1 sequence (Q9BY41 1-377): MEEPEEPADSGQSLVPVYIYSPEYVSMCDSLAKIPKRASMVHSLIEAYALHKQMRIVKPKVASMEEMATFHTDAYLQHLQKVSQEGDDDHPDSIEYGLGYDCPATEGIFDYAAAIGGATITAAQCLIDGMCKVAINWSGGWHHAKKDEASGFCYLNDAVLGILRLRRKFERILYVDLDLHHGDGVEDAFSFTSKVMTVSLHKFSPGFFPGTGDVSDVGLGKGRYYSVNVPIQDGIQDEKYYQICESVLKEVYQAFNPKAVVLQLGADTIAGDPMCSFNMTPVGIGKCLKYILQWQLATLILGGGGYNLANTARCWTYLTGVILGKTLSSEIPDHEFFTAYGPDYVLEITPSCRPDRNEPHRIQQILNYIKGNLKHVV
Briefly: HDAC8 inhibitory activity analysis (in vitro), RFU analysis, HDAC Fluorogenic assay kit. The format is biochemical. Particulars: 10 μM; compared with TSA or SAHA.

Assay [1] relates to PC-3 prostate cancer cells. Put plainly: Prostate cancer cell growth inhibition, CCK-8 assay. It is filed as cell-based, human. The following applies: various concentrations, FIG. 1. Here is the method:
PC-3, a human-derived prostate cancer cell line, was cultured with RPMI1640 (10% fetal bovine serum, 1% Penicillin Streptomycin) culture medium at 37° C., 5% CO2 condition. All cells in the experiment were subcultured when they reached a confluency of approximately 80% to 90%, and only cells that had not passed 20 passages were used.
After culturing, 10 L CCK-8 reagent was added and the absorbance was measured after 1 hour. The absorbance was measured at 450 nm using a microplate reader [BMG Labtech (Offenburg, Germany)].
A general note: Tetrazolium assays rely on reduction of a dye to a coloured formazan, in cell work by metabolically active cells.

The subject of another assay is Liver cancer cells Huh-7. Briefly: Liver cancer cell growth inhibition, CellTiter-Glo Luminescent Cell Viability Assay. It is filed as cell-based. Particulars: various concentrations; day 1; FIG. 6. Here is the method: In addition, an analysis of liver cancer growth inhibitory activity was performed. Liver cancer cells Huh-7 cells were dispensed in a 96-well plate at 1×10^4 cells/ml, and after 20 hours, PCI34051, Example 27, and Example 35 were added at various concentrations, and cultured for 24 and 48 hours at 37° C. in a 5% CO2 atmosphere. After culturing, 100 l CellTiter-Glo Luminescent Cell Viability Assay reagent was added and the luminescence signal was measured after 0.5-1 hour. The luminescence signal was measured using IVIS [PerkinElmer, (Waltham, USA)].

A further assay deals with HDAC2 (Homo sapiens, UniProt Q92769). Put plainly: Selective inhibitory effect, HDAC Fluorogenic assay kit, HDAC2. The following applies: read-out: HDAC2 enzyme activity (%).
Chain of HDAC2 (Q92769 whole entry): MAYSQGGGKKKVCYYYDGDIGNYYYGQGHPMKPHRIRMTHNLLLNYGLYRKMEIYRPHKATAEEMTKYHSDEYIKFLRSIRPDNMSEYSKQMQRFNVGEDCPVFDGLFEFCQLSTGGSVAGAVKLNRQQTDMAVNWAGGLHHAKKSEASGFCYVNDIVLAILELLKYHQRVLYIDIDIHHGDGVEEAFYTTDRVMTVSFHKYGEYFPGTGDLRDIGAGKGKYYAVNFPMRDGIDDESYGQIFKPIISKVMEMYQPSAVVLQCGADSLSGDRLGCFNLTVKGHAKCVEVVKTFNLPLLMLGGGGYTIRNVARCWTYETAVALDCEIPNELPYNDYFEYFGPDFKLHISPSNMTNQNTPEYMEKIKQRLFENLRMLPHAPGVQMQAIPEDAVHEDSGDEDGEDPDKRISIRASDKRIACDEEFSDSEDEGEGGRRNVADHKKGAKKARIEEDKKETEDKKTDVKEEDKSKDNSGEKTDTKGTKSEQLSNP
The target of another assay is HDAC1 (Homo sapiens, UniProt Q13547). Briefly: Selective inhibitory effect, HDAC Fluorogenic assay kit, HDAC1. The following applies: read-out: HDAC1 enzyme activity (%).
Chain of HDAC1 (Q13547 whole entry): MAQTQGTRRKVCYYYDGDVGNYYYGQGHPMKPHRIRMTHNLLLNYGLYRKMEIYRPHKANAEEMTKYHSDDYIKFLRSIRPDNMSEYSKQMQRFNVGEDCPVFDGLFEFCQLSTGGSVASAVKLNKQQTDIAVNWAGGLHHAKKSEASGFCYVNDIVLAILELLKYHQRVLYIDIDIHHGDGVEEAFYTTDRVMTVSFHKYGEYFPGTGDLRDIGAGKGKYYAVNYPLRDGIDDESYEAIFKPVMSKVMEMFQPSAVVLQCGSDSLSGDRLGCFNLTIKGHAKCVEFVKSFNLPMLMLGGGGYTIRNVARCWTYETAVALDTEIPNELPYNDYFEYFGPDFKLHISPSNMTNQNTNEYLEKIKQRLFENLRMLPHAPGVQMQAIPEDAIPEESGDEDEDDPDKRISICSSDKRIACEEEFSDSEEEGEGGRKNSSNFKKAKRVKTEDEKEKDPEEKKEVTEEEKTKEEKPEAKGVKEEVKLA
The target of the next assay is T2, HDAC10 (Homo sapiens, UniProt Q969S8).
T2 sequence (Q969S8 1-669): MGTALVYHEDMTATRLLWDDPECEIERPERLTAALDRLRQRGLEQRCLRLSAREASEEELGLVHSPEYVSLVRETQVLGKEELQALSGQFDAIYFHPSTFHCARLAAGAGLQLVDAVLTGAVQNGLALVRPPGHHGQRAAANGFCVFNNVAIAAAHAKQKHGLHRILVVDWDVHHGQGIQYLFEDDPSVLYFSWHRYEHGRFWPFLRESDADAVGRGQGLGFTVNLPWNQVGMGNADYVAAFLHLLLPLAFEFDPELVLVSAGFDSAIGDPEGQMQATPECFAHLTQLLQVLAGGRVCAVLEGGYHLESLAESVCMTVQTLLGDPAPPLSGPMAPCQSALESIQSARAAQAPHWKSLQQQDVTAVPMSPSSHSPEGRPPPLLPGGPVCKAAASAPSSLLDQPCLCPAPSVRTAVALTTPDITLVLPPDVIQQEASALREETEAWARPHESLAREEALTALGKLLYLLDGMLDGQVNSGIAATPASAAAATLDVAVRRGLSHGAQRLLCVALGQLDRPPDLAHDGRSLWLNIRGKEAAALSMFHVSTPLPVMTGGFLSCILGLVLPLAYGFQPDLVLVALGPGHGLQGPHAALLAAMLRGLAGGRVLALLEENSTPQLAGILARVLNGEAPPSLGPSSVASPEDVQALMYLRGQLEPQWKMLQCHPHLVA
Briefly: Selective inhibitory effect, HDAC Fluorogenic assay kit, HDAC10. Particulars: read-out: HDAC10 enzyme activity (%).

The next assay has as its target T3, HDAC6 (Homo sapiens, UniProt Q9UBN7).
T3 sequence (Q9UBN7 1-1215): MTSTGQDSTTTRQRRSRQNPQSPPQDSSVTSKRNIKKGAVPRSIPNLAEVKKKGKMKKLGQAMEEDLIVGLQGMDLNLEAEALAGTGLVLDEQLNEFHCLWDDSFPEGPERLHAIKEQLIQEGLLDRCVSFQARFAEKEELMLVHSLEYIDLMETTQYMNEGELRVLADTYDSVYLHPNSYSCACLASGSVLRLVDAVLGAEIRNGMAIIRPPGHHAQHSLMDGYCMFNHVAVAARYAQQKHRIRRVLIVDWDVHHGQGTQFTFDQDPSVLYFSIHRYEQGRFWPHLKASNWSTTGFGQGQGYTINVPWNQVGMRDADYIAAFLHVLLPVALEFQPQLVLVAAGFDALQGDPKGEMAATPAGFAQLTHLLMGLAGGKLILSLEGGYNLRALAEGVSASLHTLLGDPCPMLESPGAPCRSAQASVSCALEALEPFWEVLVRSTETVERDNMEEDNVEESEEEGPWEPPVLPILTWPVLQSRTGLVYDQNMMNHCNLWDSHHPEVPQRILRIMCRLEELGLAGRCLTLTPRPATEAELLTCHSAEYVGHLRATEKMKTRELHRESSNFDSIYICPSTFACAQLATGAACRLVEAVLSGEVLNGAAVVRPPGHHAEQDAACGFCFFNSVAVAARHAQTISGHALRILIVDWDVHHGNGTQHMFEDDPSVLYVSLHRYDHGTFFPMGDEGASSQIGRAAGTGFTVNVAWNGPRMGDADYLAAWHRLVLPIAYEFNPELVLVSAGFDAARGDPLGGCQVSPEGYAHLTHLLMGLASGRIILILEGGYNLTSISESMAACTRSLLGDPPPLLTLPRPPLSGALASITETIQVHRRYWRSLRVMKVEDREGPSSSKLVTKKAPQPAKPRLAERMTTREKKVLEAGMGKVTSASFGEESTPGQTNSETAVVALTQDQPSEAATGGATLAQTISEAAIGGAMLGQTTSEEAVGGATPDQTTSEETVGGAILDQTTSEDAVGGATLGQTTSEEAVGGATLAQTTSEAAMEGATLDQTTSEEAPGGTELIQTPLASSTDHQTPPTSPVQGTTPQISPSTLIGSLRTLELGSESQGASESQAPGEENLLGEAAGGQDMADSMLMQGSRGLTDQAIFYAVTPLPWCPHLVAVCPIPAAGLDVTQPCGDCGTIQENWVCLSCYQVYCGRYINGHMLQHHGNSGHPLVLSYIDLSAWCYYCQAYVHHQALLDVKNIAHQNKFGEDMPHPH
Put plainly: Selective inhibitory effect, HDAC Fluorogenic assay kit, HDAC6. The following applies: read-out: HDAC6 enzyme activity (%).

Protocol for HDAC10: (§1) For analysis, HDAC substrate 3 was diluted in buffer to a concentration of 200 μM and used in HDAC 1, 2, 3, 6, and 10 assays, HDAC substrate 2A was diluted in buffer to a concentration of 200 μM and used in HDAC 4, 7, 9, and 11 assays, HDAC substrate 2A was diluted in buffer to a concentration of 20 μM and used in HDAC 8 assays. For the HDAC 11 assay, a dedicated buffer included in the kit was used separately, and the same buffer was used for the remaining assays. The compound of the Example was diluted to 1 mM (1% DMSO concentration) using DMSO to obtain a final concentration of 10 μM, and prepared by diluting 1/10 with assay buffer. In a 96-well black round-bottom plate, 5 μL of the diluted compound of the Example, 5 μL of the diluted HDAC substrate, 5 μL of BSA (1 mg/ml), 5 μL of the HDAC enzyme diluted to the appropriate concentration, and 30 μL of assay buffer were added, and the enzyme reaction was performed at 37° C. for 30 minutes. […] Afterwards, 50 μL of 2×HDAC developer was added to each well. After reacting for 15 minutes at room temperature, the fluorescence values at excitation wavelengths of 350-380 nm and emission wavelengths of 440-460 nm were measured using a microplate reader (Synergy Neo).
Protocol for HDAC2: as §1
Protocol for HDAC6: as §1
Protocol for HDAC8: The compound of the Example was diluted to 1 mM (1% DMSO concentration) using DMSO to obtain a final concentration of 10 μM, and prepared by diluting 1/10 with assay buffer. In a 96-well black round-bottom plate, 5 μL of the diluted compound of the Example, 5 μL of the diluted HDAC substrate 2A, 5 μL of BSA (1 mg/mL), 5 µL of the HDAC8 enzyme diluted to an appropriate concentration, and 30 μL of assay buffer were added, and the enzyme reaction was performed at 37° C. for 30 minutes. […] Afterwards, 50 μL of 2×HDAC developer was added to each well. After reacting for 15 minutes at room temperature, the fluorescence values at excitation wavelengths of 350-380 nm and emission wavelengths of 440-460 nm were measured using a microplate reader (Synergy Neo).

Turning to `Cc1cc2nc(C(=O)Nc3cc(-c4ccc(Br)cc4)no3)c(=O)n(C[C@H](O)[C@H](O)[C@H](O)CO)c2cc1C` [Example 10, N-(3-(4-bromophenyl)isoxazol-5-yl)-6,7-dimethyl-3-oxo-4-((2S,3S,4R)-2,3,4,5-tetrahydroxypentyl)-3,4-dihydroquinoxaline-2-carboxamide], the “inhibitory activity against HDAC8 (in words)” value (from here on “inhibitory activity”) at HDAC8 was “inhibitory activity similar to TSA or SAHA”. Turning to `Cc1cc2nc(C(=O)NCc3ccc4[nH]cnc4c3)c(=O)n(C[C@H](O)[C@H](O)[C@H](O)CO)c2cc1C` [Example 34, N-((1H-benzo[d]imidazol-5-yl)methyl)-6,7-dimethyl-3-oxo-4-((2S,3S,4R)-2,3,4,5-tetrahydroxypentyl)-3,4-dihydroquinoxaline-2-carboxamide], the “inhibitory activity” value at HDAC8 was “inhibitory activity similar to TSA or SAHA”. Consider `Cc1cc2nc(C(=O)Nc3nc4c(F)cccc4[nH]3)c(=O)n(C[C@H](O)[C@H](O)[C@H](O)CO)c2cc1C` [Example 35, N-(4-fluoro-1H-benzo[d]imidazol-2-yl)-6,7-dimethyl-3-oxo-4-((2S,3S,4R)-2,3,4,5-tetrahydroxypentyl)-3,4-dihydroquinoxaline-2-carboxamide], for which the “inhibitory activity” value at HDAC8 is reported as “inhibitory activity similar to TSA or SAHA”. Besides, the “PC-3 cell viability after 24 hours (in words)” value in assay [1] (24 hours) is reported as “concentration-dependent inhibition of cancer cell viability”. For the same molecule, the “PC-3 cell viability after 48 hours (in words)” value in assay [1] (48 hours) is reported as “cell viability was restored”. Also, the “Huh-7 cell viability (in words)” value in the assay with Liver cancer cells Huh-7 is “concentration-dependent inhibition of cancer cell viability”.

`Cc1cc2nc(C(=O)Nc3ccc(C(=O)NO)cc3)c(=O)n(C[C@H](O)[C@H](O)[C@H](O)CO)c2cc1C` [Example 48, N-(4-(hydroxycarbamoyl)phenyl)-6,7-dimethyl-3-oxo-4-((2S,3S,4R)-2,3,4,5-tetrahydroxypentyl)-3,4-dihydroquinoxaline-2-carboxamide]: the “inhibitory activity” value at HDAC8 is “inhibitory activity similar to TSA or SAHA”. On the same count and under the same terms, next, `Cc1cc2nc(C(=O)NCc3ccc(CC(=O)NO)cc3)c(=O)n(C[C@H](O)[C@H](O)[C@H](O)CO)c2cc1C` [Example 49, N-(4-(2-(hydroxyamino)-2-oxoethyl)benzyl)-6,7-dimethyl-3-oxo-4-((2S,3S,4R)-2,3,4,5-tetrahydroxypentyl)-3,4-dihydroquinoxaline-2-carboxamide]: “inhibitory activity similar to TSA or SAHA”.

Turning to `Cc1cc2nc(C(=O)Nc3cc(C(=O)NO)ccc3C)c(=O)n(C[C@H](O)[C@H](O)[C@H](O)CO)c2cc1C` [Example 51, N-(5-(hydroxycarbamoyl)-2-methylphenyl)-6,7-dimethyl-3-oxo-4-((2S,3S,4R)-2,3,4,5-tetrahydroxypentyl)-3,4-dihydroquinoxaline-2-carboxamide], the “inhibitory activity” value against HDAC8 is reported as “inhibitory activity similar to TSA or SAHA”. As to `COc1ccc(Cn2ccc3ccc(C(=O)NO)cc32)cc1` [PCI-34051, N-hydroxy-1-(4-methoxybenzyl)-1H-indole-6-carboxamide, reference compound], the “Huh-7 cell viability (in words)” value in the assay on Liver cancer cells Huh-7 is reported as “concentration-dependent inhibition of cancer cell viability”. `CC(/C=C/C(=O)NO)=C\[C@@H](C)C(=O)c1ccc(N(C)C)cc1` [TSA, Trichostatin A, reference compound]: the remaining activity at 10 µM at HDAC2 was 0.7%; at HDAC1, 1.22%; at HDAC10, 1.21%; at HDAC6, 1.11%.
